These results are taken from US20020065326A1, “Patient oxygenation using stabilized fluorocarbon emulsions” (priority 1992, published 2002).

The nature of one data set: in vivo. From the text: Traditionally, the molecular weight region from 460-550 g/mol has been considered optimal for blood substitute applications. The lower cutoff is related to the formation of gas emboli for fluorocarbons with vapor pressures greater than 20 torr. The upper cutoff is limited to compounds with organ retention times of less than 3 weeks.
The lower limit is defined by fluorocarbons with vapor pressures greater than 20 torr which causes gas emboli, while the upper limit is defined by fluorocarbons with organ retention times of less than 3 weeks.

The nature of data set [1]: Critical solution temperature (CST) versus hexane. The class given is physicochemical. Here is the method: Critical solution temperature for fluorocarbon liquids was measured in the following manner: Equivolume mixtures of the test fluorocarbon and hydrocarbon (e.g., hexane) are placed in a sealed vial and submerged in a temperature controlled water bath. Samples are cooled until two distinct phases are present. At this point, the temperature is increased slowly. The lowest temperature at which the two phases are completely miscible (i.e., a single liquid phase) is defined as the CST.
For comparison purposes, all CST temperatures used in this patent are reported versus hexane. It is often not possible, however, to measure the CST for lipophilic fluorocarbons versus hexane, since the CSTs for these substances are very low. Thus, the CST for lipophilic substances is often measured in longer chain length hydrocarbons, and the value versus hexane is determined via extrapolation of linear plots of CST vs. alkane chain length.

For data set [2] the following is noted: cited from earlier work; for t½: organ retention half life, prior art / nonlipophilic fluorocarbons from literature.
For data set [3] the following is noted: critical solution temperature vs hexane; prior art minor components discussed in literature; cited from earlier work.
The mark [4] stands for this setting: vs hexane, estimated from extrapolations of linear plots of CST vs. hydrocarbon chain length.

Read-outs that look alike come from different tables or passages of the source. Marks after values point to notes of the source that are not given here.

For `FC1(F)C(F)(F)C(F)(F)C2(F)C(F)(F)C(F)(F)C(F)(F)C(F)(F)C2(F)C1(F)F` (stereo not drawn) [F-decalin, perfluorodecalin], the half-life (as a rule, how long it takes for the measured level to halve) in “in vivo” (t½) was 7 days. Also, the CSTH in data set [1] (critical solution temperature vs hexane, Present Study) was 22 C.
Consider `FC(F)(F)C(F)(F)C(F)(F)C(F)(F)C(F)(F)C(F)(F)C(F)(F)C(F)(F)C(F)(F)C(F)(F)Br` [F-decyl bromide, perfluorodecyl bromide], for which, in “in vivo”, the “organ half-life versus prescribed cutoff” value is recorded as “less than 3 week”, the “organ retention time compared with that predicted from the molecular weight” value was “less than be predicted from the molecular weight” and the “t½ (calculated half life in vivo in organs of the RES)” value is recorded as “(18) days”. For the same compound, in the data set “in vivo” (t½ (calculated half life in vivo in organs of the RES)), the half-life was approximately 18 days. Moreover, the “critical solution temperature compared with prior art stabilizers (in words)” value in data set [1] (vs hexane, at comparable molecular weight) is recorded as “dramatically lower”. Besides, the CSTH result in data set [1] (setting [4]) was “(19)^a C”.
`FC1(F)OC(F)(F)C(F)(F)N(C(F)(F)C(F)(F)N2C(F)(F)C(F)(F)OC(F)(F)C2(F)F)C1(F)F` [F-dimorpholinoethane]: in data set [2], the t½ (commonly the time needed for the level to fall by half in the phase considered) is recorded as 24 days. Also, the CSTH in data set [3] is reported as 38 C.
`FC1(F)OC(F)(F)C(F)(F)N(C(F)(F)C(F)(F)C(F)(F)C(F)(F)C(F)(F)N2C(F)(F)C(F)(F)OC(F)(F)C2(F)F)C1(F)F` [F-dimorpholinopentane]: the t½ in data set [2] was 280 days. The CSTH in data set [3] is given as 60 C.
Take `FC1(F)OC(F)(F)C(F)(F)N(C(F)(F)C(F)(F)C(F)(F)N2C(F)(F)C(F)(F)OC(F)(F)C2(F)F)C1(F)F` [F-dimorpholinopropane]: the t½ in data set [2] is listed as 50 days. Further, the CSTH in data set [3] is 45 C.
The compound `FC(F)(F)C(F)(F)C(F)(F)C(F)(F)C(F)(F)C(F)(F)Br` [F-hexyl bromide, 1-bromotridecafluorohexane] had a half-life in the data set “in vivo” (in vivo) of 2 days.
Regarding `FC(F)(F)C(F)(F)C(F)(F)C(F)(F)C(F)(F)C(F)(F)C(F)(F)C(F)(F)Br` [F-octyl bromide, perfluorooctyl bromide], the “organ retention time compared with that predicted from the molecular weight” value in “in vivo” is recorded as “less than be predicted from the molecular weight”. This compound also had a half-life in the data set “in vivo” (t½) of 4 days. Further, the “ratio of half-lives for PFOB/FDC” value in data set [2] (used to scale FIG. 6 values) was 4/7. Further, the CSTH result in data set [1] (setting [4]) is reported as “(−19)^a C”.
As to `FC1(F)C(F)(F)C(F)(F)C2(F)C(F)(C1(F)F)C(F)(F)C(F)(F)C1(F)C(F)(F)C(F)(F)C(F)(F)C(F)(F)C12F` (stereo not drawn) [F-perhydrophenanthrene], the CSTH in data set [3] is on record as 48 C.
With `FC1(F)OC(F)(F)C(F)(F)N(C2(F)C(F)(F)C(F)(F)C(F)(F)C(F)(F)C2(F)F)C1(F)F` [F—N-cyclohexylmorpholine], the t½ in data set [2] is listed as 13 days. In addition, the CSTH in data set [3] is 31 C.
Turning to F-dip;peridinopropane, the t½ in data set [2] is 282 days. Besides, the CSTH in data set [3] was 56 C.
As to F-dipipendine, in data set [3], the CSTH is given as 36 C.
Consider F-dipiperidinobutane, for which the t½ in data set [2] is recorded as 1460 days. In addition, the CSTH in data set [3] is listed as 72 C.
For the compound F-dipiperidinoethane, in data set [2], the t½ is recorded as 124 days. Besides, the CSTH in data set [3] is on record as 49 C.
As for F-dipiperidinomethane, the t½ in data set [2] was 55 days. Moreover, the CSTH in data set [3] is listed as 42 C.
For F—N-methylcyclohexylpiperidine, in data set [2], the t½ was 60 days. The CSTH in data set [3] was 40 C.
